Tested on: NTS clinical isolates
Assay: Antibiotics susceptibility test to ampicillin (CLSI disc inhibition zone and/or MIC); note: key: R = Resistant to ampicillin; S = Susceptible to ampicillin
Type: cell-based, non-typhoidal Salmonella
Experimental: Before the NGS study, the antimicrobial susceptibility to ampicillin in the 169 isolates was re-confirmed using the disc inhibition zones or MICs (FIG. 1). Then, the bacterial DNAs were extracted from 53 NTS isolates and NGS was performed using the Illumina© MiSeq sequencer. Subsequently, the NTS serotypes of 53 NTS clinical isolates were confirmed by multilocus sequence typing (MLST) as shown in Table 1. The big genomic data were analyzed to examine presence of plasmid-mediated genes or genetic mutations in the bacterial genome of Salmonella spp. and other bacteria reported in the PubMed, ARG-ANNOT, CARD, and ResFinder (FIG. 1).
The 169 NTS clinical isolates were tested for antimicrobial susceptibility based on (CLSI) guidelines. Briefly, bacteria were spread onto Mueller-Hinton MH agar, and co-incubated with antimicrobial disks (Oxoid, Cambridge, UK) of ampicillin individually at 37° C. for 18 hours. Another alternative is measurement of the minimum inhibitory concentrations (MICs) of ampicillin in serial dilutions of ampicillin co-cultured with bacterial solution of NTS isolates. Finally, the resistance to ampicillin in NTS isolates was determined according to the diameter of inhibition zone (≤13 mm) and/or the MIC of ampicillin>16 μg/mL according to the guideline of CLSI.

CC1(C)S[C@@H]2[C@H](NC(=O)[C@H](N)c3ccccc3)C(=O)N2[C@H]1C(=O)O [ampicillin]
AMP-R (NTS isolate SH-12, serotype Amsterdam): S
AMP-R (NTS isolate SH-A1, serotype Enteritidis): S
AMP-R (NTS isolate SH-B2, serotype Enteritidis): R
AMP-R (NTS isolate SH-B5, serotype Enteritidis): R
AMP-R (NTS isolate SH-C2, serotype Newport): S
AMP-R (NTS isolate SH-C3, serotype Enteritidis): S
AMP-R (NTS isolate SH-C4, serotype Typhimurium): R
AMP-R (NTS isolate SH-D2, serotype Enteritidis): S
AMP-R (NTS isolate SH-D4, serotype Enteritidis): S
AMP-R (NTS isolate SH-D5, serotype Typhimurium): S
AMP-R (NTS isolate SH-E1, serotype Unknown): R
AMP-R (NTS isolate SH-E2, serotype Virchow): S
AMP-R (NTS isolate SH-E3, serotype Newport): S
AMP-R (NTS isolate SH-F4, serotype Typhimurium): R
AMP-R (NTS isolate SH-F5, serotype Enteritidis): R
AMP-R (NTS isolate SH-G1, serotype Stanley): S
AMP-R (NTS isolate SH-G2, serotype Typhimurium): R
AMP-R (NTS isolate SH-G3, serotype Enteritidis): R
AMP-R (NTS isolate SH-G5, serotype Albany): R
AMP-R (NTS isolate SH-H3, serotype Derby): S
AMP-R (NTS isolate SH-H4, serotype Newport): R
AMP-R (NTS isolate TSAR-C1, serotype Schwarzengrund): R
AMP-R (NTS isolate TSAR-C2, serotype Schwarzengrund): R
AMP-R (NTS isolate TSAR-C3, serotype Schwarzengrund): R
AMP-R (NTS isolate TSAR-C4, serotype Typhimurium): R
AMP-R (NTS isolate TSAR-C5, serotype Choleraesuis): R
AMP-R (NTS isolate TSAR-C6, serotype Typhimurium): R
AMP-R (NTS isolate TSAR-C7, serotype Typhimurium): R
AMP-R (NTS isolate TSAR-C10, serotype Enteritidis): R
AMP-R (NTS isolate TSAR-C13, serotype Stanley): R
AMP-R (NTS isolate TSAR-C16, serotype Typhimurium): R
AMP-R (NTS isolate TSAR-C19, serotype Stanley): R
AMP-R (NTS isolate TSAR-E5, serotype Choleraesuis): R
AMP-R (NTS isolate TSAR-E9, serotype Choleraesuis): R
AMP-R (NTS isolate TSAR-E10, serotype Typhimurium): R
AMP-R (NTS isolate TSAR-E16, serotype Virchow): R
AMP-R (NTS isolate TSAR-E18, serotype Meleagridis): R
AMP-R (NTS isolate TSAR-E19, serotype Newport): R
AMP-R (NTS isolate TSAR-E20, serotype Typhimurium): R
AMP-R (NTS isolate TSAR-N5, serotype Typhimurium): R
AMP-R (NTS isolate TSAR-N8, serotype Typhimurium): R
AMP-R (NTS isolate TSAR-N9, serotype Montevideo): R
AMP-R (NTS isolate TSAR-N15, serotype Schwarzengrund): R
AMP-R (NTS isolate TSAR-N16, serotype Agona): R
AMP-R (NTS isolate TSAR-N19, serotype Enteritidis): R
AMP-R (NTS isolate TSAR-S13, serotype Albany): R
AMP-R (NTS isolate TSAR-S14, serotype Typhimurium): R
AMP-R (NTS isolate TSAR-S15, serotype Enteritidis): R
AMP-R (NTS isolate TSAR-S16, serotype Agona): R
AMP-R (NTS isolate TSAR-S17, serotype Newport): R
AMP-R (NTS isolate TSAR-S18, serotype Newport): R
AMP-R (NTS isolate TSAR-S19, serotype Agona): R
AMP-R (NTS isolate TSAR-S20, serotype Livingstone): R

From patent US12590338B2, “Method and device for detection of ampicillin-resistant non-typhoidal Salmonella” (priority 2018, dated 2026)
